# Columns and labels:
# Assay type in all cases: in vivo
# Parameters in all cases: key: 0 is no effect; 10 is complete control
# [1] = tested on: bedstraw (Galium aparine); test: Test B pre-/postemergence
# Method in brief: (§1)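 Response scores run from 0, meaning no effect, to 10, meaning complete control, assigned by eye relative to controls twelve to sixteen days after spraying. Treatment was both preemergence on planted seed and postemergence on plants at the 1- to 4-leaf stage.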
# corn (Zea mays) = test: Test B pre-/postemergence
# Method in brief: as §1
# [2] = tested on: crabgrass (Digitaria sanguinalis); test: Test B pre-/postemergence
# Method in brief: as §1
# [3] = tested on: giant foxtail (Setaria faberii); test: Test B pre-/postemergence
# Method in brief: as §1
# [4] = tested on: purple nutsedge (Cyperus rotundus); test: Test B pre-/postemergence
# Method in brief: as §1
# rape (Brassica napus) = test: Test B pre-/postemergence
# Method in brief: as §1
# soybean (Glycine max) = test: Test B pre-/postemergence
# Method in brief: as §1
# [5] = tested on: sugar beet (Beta vulgaris); test: Test B pre-/postemergence
# Method in brief: as §1
# [6] = tested on: velvetleaf (Abutilon theophrasti); test: Test B pre-/postemergence
# Method in brief: as §1
# [7] = tested on: wheat (Triticum aestivum); test: Test B pre-/postemergence
# Method in brief: as §1
# wild oat (Avena fatua) = test: Test B pre-/postemergence
# Method in brief: as §1
# [8] = tested on: bamyardgrass (Echinochloa crus-galli); test: Test B flood test
# Method in brief: (§2)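 Each value is a visual injury score relative to controls, with 10 meaning complete control and 0 no effect. Evaluation took place twelve to sixteen days after the 2-leaf-stage plants were treated and kept in the greenhouse.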
# [9] = tested on: duck salad (Heteranthera limosa); test: Test B flood test
# Method in brief: as §2
# rice (Oryza sativa) = test: Test B flood test
# Method in brief: as §2
# [10] = tested on: smallflower flatsedge (Cyperus difformis); test: Test B flood test
# Method in brief: as §2
# [11] = Rate 62 g/ha, Postemergence (flood test)
# [12] = Rate 125 g/ha, Postemergence, flood test
# [13] = Rate 250 g/ha, Postemergence (flood test species)
# [14] = Rate 500 g/ha, Postemergence (flood test species)
structure (smiles),measurement,setting,value
Cc1cnc(-c2ccc(C(F)(F)F)cc2)nc1Cn1nc(C(F)(F)F)cc1C [Compound 13],"Plant response rating, Bedstraw","[1]; Rate 62 g/ha, Postemergence",7
same,Bedstraw plant response rating,"[1]; Rate 62 g/ha, Preemergence",1
same,"Plant response rating, Bedstraw","[1]; Rate 125 g/ha, Postemergence",9
same,Bedstraw plant response rating,"[1]; Rate 125 g/ha, Preemergence",2
same,"Plant response rating, Bedstraw","[1]; Rate 250 g/ha, Postemergence",10
same,"Plant response rating, Bedstraw","[1]; Rate 250 g/ha, Preemergence",5
same,"Plant response rating, Bedstraw","[1]; Rate 500 g/ha, Postemergence",10
same,"Plant response rating, Bedstraw","[1]; Rate 500 g/ha, Preemergence",6
same,"Plant response rating, Corn","corn (Zea mays); Rate 62 g/ha, Postemergence",3
same,Corn plant response rating,"corn (Zea mays); Rate 62 g/ha, Preemergence",1
same,"Plant response rating, Corn","corn (Zea mays); Rate 125 g/ha, Postemergence",3
same,Corn plant response rating,"corn (Zea mays); Rate 125 g/ha, Preemergence",1
same,"Plant response rating, Corn","corn (Zea mays); Rate 250 g/ha, Postemergence",3
same,"Plant response rating, Corn","corn (Zea mays); Rate 250 g/ha, Preemergence",1
same,"Plant response rating, Corn","corn (Zea mays); Rate 500 g/ha, Postemergence",4
same,"Plant response rating, Corn","corn (Zea mays); Rate 500 g/ha, Preemergence",2
same,"Plant response rating, Crabgrass","[2]; Rate 62 g/ha, Postemergence",3
same,Crabgrass plant response rating,"[2]; Rate 62 g/ha, Preemergence",9
same,"Plant response rating, Crabgrass","[2]; Rate 125 g/ha, Postemergence",4
same,Crabgrass plant response rating,"[2]; Rate 125 g/ha, Preemergence",10
same,"Plant response rating, Crabgrass","[2]; Rate 250 g/ha, Postemergence",7
same,"Plant response rating, Crabgrass","[2]; Rate 250 g/ha, Preemergence",10
same,"Plant response rating, Crabgrass","[2]; Rate 500 g/ha, Postemergence",9
same,"Plant response rating, Crabgrass","[2]; Rate 500 g/ha, Preemergence",10
same,"Plant response rating, Giant foxtail","[3]; Rate 62 g/ha, Postemergence",2
same,Giant foxtail plant response rating,"[3]; Rate 62 g/ha, Preemergence",9
same,"Plant response rating, Giant foxtail","[3]; Rate 125 g/ha, Postemergence",3
same,Giant foxtail plant response rating,"[3]; Rate 125 g/ha, Preemergence",10
same,"Plant response rating, Giant foxtail","[3]; Rate 250 g/ha, Postemergence",4
same,"Plant response rating, Giant foxtail","[3]; Rate 250 g/ha, Preemergence",10
same,"Plant response rating, Giant foxtail","[3]; Rate 500 g/ha, Postemergence",5
same,"Plant response rating, Giant foxtail","[3]; Rate 500 g/ha, Preemergence",10
same,"Plant response rating, Nutsedge","[4]; Rate 62 g/ha, Postemergence",0
same,Nutsedge plant response rating,"[4]; Rate 62 g/ha, Preemergence",0
same,"Plant response rating, Nutsedge","[4]; Rate 125 g/ha, Postemergence",0
same,Nutsedge plant response rating,"[4]; Rate 125 g/ha, Preemergence",0
same,"Plant response rating, Nutsedge","[4]; Rate 250 g/ha, Postemergence",0
same,"Plant response rating, Nutsedge","[4]; Rate 250 g/ha, Preemergence",0
same,"Plant response rating, Nutsedge","[4]; Rate 500 g/ha, Postemergence",0
same,"Plant response rating, Nutsedge","[4]; Rate 500 g/ha, Preemergence",0
same,"Plant response rating, Rape","rape (Brassica napus); Rate 62 g/ha, Postemergence",6
same,Rape plant response rating,"rape (Brassica napus); Rate 62 g/ha, Preemergence",5
same,"Plant response rating, Rape","rape (Brassica napus); Rate 125 g/ha, Postemergence",8
same,Rape plant response rating,"rape (Brassica napus); Rate 125 g/ha, Preemergence",6
same,"Plant response rating, Rape","rape (Brassica napus); Rate 250 g/ha, Postemergence",9
same,"Plant response rating, Rape","rape (Brassica napus); Rate 250 g/ha, Preemergence",9
same,"Plant response rating, Rape","rape (Brassica napus); Rate 500 g/ha, Postemergence",9
same,"Plant response rating, Rape","rape (Brassica napus); Rate 500 g/ha, Preemergence",9
same,"Plant response rating, Soybean","soybean (Glycine max); Rate 62 g/ha, Postemergence",4
same,Soybean plant response rating,"soybean (Glycine max); Rate 62 g/ha, Preemergence",1
same,"Plant response rating, Soybean","soybean (Glycine max); Rate 125 g/ha, Postemergence",5
same,Soybean plant response rating,"soybean (Glycine max); Rate 125 g/ha, Preemergence",1
same,"Plant response rating, Soybean","soybean (Glycine max); Rate 250 g/ha, Postemergence",5
same,"Plant response rating, Soybean","soybean (Glycine max); Rate 250 g/ha, Preemergence",3
same,"Plant response rating, Soybean","soybean (Glycine max); Rate 500 g/ha, Postemergence",5
same,"Plant response rating, Soybean","soybean (Glycine max); Rate 500 g/ha, Preemergence",3
same,"Plant response rating, Sugarbeets","[5]; Rate 62 g/ha, Postemergence",9
same,Sugarbeets plant response rating,"[5]; Rate 62 g/ha, Preemergence",9
same,"Plant response rating, Sugarbeets","[5]; Rate 125 g/ha, Postemergence",10
same,Sugarbeets plant response rating,"[5]; Rate 125 g/ha, Preemergence",10
same,"Plant response rating, Sugarbeets","[5]; Rate 250 g/ha, Postemergence",10
same,"Plant response rating, Sugarbeets","[5]; Rate 250 g/ha, Preemergence",10
same,"Plant response rating, Sugarbeets","[5]; Rate 500 g/ha, Postemergence",10
same,"Plant response rating, Sugarbeets","[5]; Rate 500 g/ha, Preemergence",10
same,"Plant response rating, Velvetleaf","[6]; Rate 62 g/ha, Postemergence",4
same,Velvetleaf plant response rating,"[6]; Rate 62 g/ha, Preemergence",6
same,"Plant response rating, Velvetleaf","[6]; Rate 125 g/ha, Postemergence",4
same,Velvetleaf plant response rating,"[6]; Rate 125 g/ha, Preemergence",7
same,"Plant response rating, Velvetleaf","[6]; Rate 250 g/ha, Postemergence",8
same,"Plant response rating, Velvetleaf","[6]; Rate 250 g/ha, Preemergence",10
same,"Plant response rating, Velvetleaf","[6]; Rate 500 g/ha, Postemergence",8
same,"Plant response rating, Velvetleaf","[6]; Rate 500 g/ha, Preemergence",10
same,"Plant response rating, Wheat","[7]; Rate 62 g/ha, Postemergence",2
same,Wheat plant response rating,"[7]; Rate 62 g/ha, Preemergence",0
same,"Plant response rating, Wheat","[7]; Rate 125 g/ha, Postemergence",3
same,Wheat plant response rating,"[7]; Rate 125 g/ha, Preemergence",0
same,"Plant response rating, Wheat","[7]; Rate 250 g/ha, Postemergence",3
same,"Plant response rating, Wheat","[7]; Rate 250 g/ha, Preemergence",0
same,"Plant response rating, Wheat","[7]; Rate 500 g/ha, Postemergence",4
same,"Plant response rating, Wheat","[7]; Rate 500 g/ha, Preemergence",1
same,"Plant response rating, Wild oats","wild oat (Avena fatua); Rate 62 g/ha, Postemergence",3
same,Wild oats plant response rating,"wild oat (Avena fatua); Rate 62 g/ha, Preemergence",3
same,"Plant response rating, Wild oats","wild oat (Avena fatua); Rate 125 g/ha, Postemergence",3
same,Wild oats plant response rating,"wild oat (Avena fatua); Rate 125 g/ha, Preemergence",5
same,"Plant response rating, Wild oats","wild oat (Avena fatua); Rate 250 g/ha, Postemergence",4
same,"Plant response rating, Wild oats","wild oat (Avena fatua); Rate 250 g/ha, Preemergence",7
same,"Plant response rating, Wild oats","wild oat (Avena fatua); Rate 500 g/ha, Postemergence",4
same,"Plant response rating, Wild oats","wild oat (Avena fatua); Rate 500 g/ha, Preemergence",9
same,"Plant response rating, Barnyardgrass",[8]; [11],2
same,"Plant response rating, Barnyardgrass",[8]; [12],2
same,"Plant response rating, Barnyardgrass",[8]; [13],3
same,"Plant response rating, Barnyardgrass",[8]; [14],3
same,"Plant response rating, Ducksalad",[9]; [11],0
same,"Plant response rating, Ducksalad",[9]; [12],1
same,"Plant response rating, Ducksalad",[9]; [13],2
same,"Plant response rating, Ducksalad",[9]; [14],3
same,"Plant response rating, Rice",rice (Oryza sativa); [11],0
same,"Plant response rating, Rice",rice (Oryza sativa); [12],0
same,"Plant response rating, Rice",rice (Oryza sativa); [13],0
same,"Plant response rating, Rice",rice (Oryza sativa); [14],1
same,"Plant response rating, S. Flatsedge",[10]; [11],2
same,"Plant response rating, S. Flatsedge",[10]; [12],4
same,"Plant response rating, S. Flatsedge",[10]; [13],4
same,"Plant response rating, S. Flatsedge",[10]; [14],5
